According to publication PMC7251097, “Aspartate/asparagine-β-hydroxylase: a high-throughput mass spectrometric assay for discovery of small molecule inhibitors” (Scientific Reports, 2020):
Where “and” joins values, the source holds several entries; their conditions need not be identical. Equal entries are not always repeated. Structures can show the parent of a compound that is named as a salt. Where two headings read alike, the source gives them in different places.

Biological target: T1, His6-AspH315–758 (human aspartate/asparagine-β-hydroxylase, AspH) (Homo sapiens, UniProt Q12797)
T1 construct: N-Terminally His6-tagged human AspH315–758 (His6-AspH315–758) was produced in E. coli BL21 (DE3) cells; made in house; host or cells: E. coli BL21 (DE3), pET-28a(+) vector
T1 sequence (Q12797 315-758): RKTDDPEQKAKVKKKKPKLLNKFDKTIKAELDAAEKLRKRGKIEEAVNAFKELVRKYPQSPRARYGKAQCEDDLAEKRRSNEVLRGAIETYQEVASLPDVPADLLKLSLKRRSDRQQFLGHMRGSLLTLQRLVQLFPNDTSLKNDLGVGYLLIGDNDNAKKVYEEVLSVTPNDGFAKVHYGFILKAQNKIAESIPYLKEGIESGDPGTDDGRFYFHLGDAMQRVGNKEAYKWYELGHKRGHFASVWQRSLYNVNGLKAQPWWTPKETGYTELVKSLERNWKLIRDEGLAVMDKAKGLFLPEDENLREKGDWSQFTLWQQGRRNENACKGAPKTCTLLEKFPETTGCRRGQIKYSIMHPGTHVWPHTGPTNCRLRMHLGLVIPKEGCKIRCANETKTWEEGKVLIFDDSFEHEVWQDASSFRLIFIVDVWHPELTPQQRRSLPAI
Test: SPE-MS AspH inhibition assay (LOPAC screen at fixed 20 μM and IC50 dose-response), hydroxylation of cyclic peptide hFX-CP101–119
Type: biochemical
Conditions: for IC50: read-out: IC50

[1] = LOPAC compound at fixed 20 uM, plate 1, normalised to DMSO and 2,4-PDCA controls
[2] = LOPAC compound at fixed 20 uM, substrate conversion, plate 1
[3] = plate 5 (Pfitzer), test compounds at fixed 20 μM
[4] = plate 5 (Pfitzer), test compounds at fixed 20 μM, mean conversion DMSO 32.88
[5] = LOPAC Plate 4, compound at 20 uM, substrate conversion
[6] = LOPAC Plate 4, compound at 20 uM, read-out: % inhibition
[7] = LOPAC Plate 4, compound at 20 uM
[8] = LOPAC compound at 20uM, plate 3, conversion of substrate peptide
[9] = 50 nM His6-AspH315–758, 1.0 μM hFX-CP101–119, 3 μM 2OG, 2 μM Fe(II), 50 mM HEPES pH 7.5, 20 °C, mean ± SD, n = 2 (2,4-PDCA n = 10)
[10] = AspH activity, fixed compound concentration 20 μM, initial LOPAC screen, 0.5%v/v DMSO, read-out: Inhibition at 20 µM [%]
[11] = LOPAC compound at 20uM, plate 2, conversion of substrate peptide
[12] = LOPAC compound at 20uM, plate 2, normalised to DMSO and 2,4-PDCA controls

O=C(O)C(O)C(O)C(=O)O.c1cnc2cc3c(cc2n1)[C@@H]1CNC[C@H]3C1 [Varenicline tartrate]
Plate 1 (% inhibition) [1]: 66.93% | Plate 1 (% conversion) [2]: 13.40%

c1cnc2cc3c(cc2n1)[C@@H]1CNC[C@H]3C1 [Varenicline]
Plate 5 (% inhibition) [3]: 75.86% | Plate 5 (% conversion) [4]: 10.50%

COc1ccc(C(CN(C)C)C2(O)CCCCC2)cc1 (centres unmarked) [Venlafaxine hydrochloride]
Plate 2 (% conversion): 36.45% | inhibition at 20 µM (read-out: Plate 2 (% inhibition)): -1.48%

CC[C@]1(O)C[C@@H]2CN(CCc3c([nH]c4ccccc34)[C@@](C(=O)OC)(c3cc4c(cc3OC)N(C)[C@H]3[C@@](O)(C(=O)OC)[C@H](OC(C)=O)[C@]5(CC)C=CCN6CC[C@]43[C@@H]65)C2)C1.O=S(=O)(O)O [Vinblastine sulfate salt]
% conversion: 54.00% | % inhibition (20 µM): -51.36%

CC[C@]1(O)C[C@H]2CN(CCc3c([nH]c4ccccc34)[C@@](C(=O)OC)(c3cc4c(cc3OC)N(C=O)[C@H]3[C@@](O)(C(=O)OC)[C@H](OC(C)=O)[C@]5(CC)C=CCN6CC[C@]43[C@@H]65)C2)C1 [Vincristine sulfate]
% conversion [5]: 40.04% | inhibition at 20 µM [6]: -10.5%

CCOC(=O)C1=C[C@]2(CC)CCCN3CCc4c(n1c1ccccc41)[C@@H]32 [Vinpocetine]
% conversion [5]: 29.87%

C[C@@H](c1ncncc1F)[C@](O)(Cn1cncn1)c1ccc(F)cc1F [Voriconazole]
Plate 1 (% inhibition) [1]: -9.17% | Plate 1 (% conversion) [2]: 38.95% | Plate 5 (% inhibition) [3]: -1.65% | Plate 5 (% conversion) [4]: 36.88%

COc1ccccc1N1CCN(CCN(C(=O)C2CCCCC2)c2ccccn2)CC1.O=C(O)/C=C\C(=O)O [WAY-100635 maleate]
% conversion: 42.39% | % inhibition (20 µM): -17.34%

C#C[C@]1(O)CC[C@H]2[C@@H]3CCC4=Cc5nc6nc7ccccc7n6cc5C[C@]4(C)[C@H]3CC[C@@]21C [WIN 62,577]
% conversion: 37.03% | % inhibition (20 µM): -1.63%

COC[C@H]1OC(=O)c2coc3c2[C@@]1(C)C1=C(C3=O)[C@@H]2CCC(=O)[C@@]2(C)C[C@H]1OC(C)=O [Wortmannin from Penicillium funiculosum]
% conversion: 29.28%

COc1cc(/C=C(\C#N)C(=O)Nc2nnc(C(F)(F)F)s2)ccc1OCc1ccc(C(F)(F)F)cc1C(F)(F)F [XCT790]
% conversion [5]: 22.43%

Cc1cccc(C)c1N=C1NCCCS1 [Xylazine hydrochloride]
% conversion: 33.11%

Cc1cc(C(C)(C)C)cc(C)c1CC1=NCCN1 [Xylometazoline hydrochloride]
% conversion: 31.88%

CCc1ccc2c(-c3cccc(Cl)c3)nc(=O)n(CC)c2n1 [YM 976]
Plate 1 (% inhibition) [1]: -17.07% | Plate 1 (% conversion) [2]: 41.61%

COc1ccc(CCN(C)CCc2ccc(OC)c(OC)c2)cc1OC.Cl [YS-035 hydrochloride]
% inhibition [7]: -13.70% | % conversion [5]: 41.15%

COC(=O)[C@@H]1[C@H]2C[C@H]3c4[nH]c5ccccc5c4CCN3C[C@@H]2CC[C@@H]1O [Yohimbine hydrochloride]
inhibition at 20 µM: -4.13%

O=C(N[C@@H](Cc1ccccc1)C(=O)CCl)OCc1ccccc1 [Z-L-Phe chloromethyl ketone]
Plate 1 (% conversion): 35.86% | Plate 1 (% inhibition): 0.032%

CC(C)N(CCC(=O)c1ccc2ccccc2c1)Cc1ccccc1.Cl [ZM 39923 hydrochloride]
Plate 3 (% conversion) [8]: 15.79%

CCCOc1ccccc1-c1nc2nn[nH]c2c(=O)[nH]1 [Zaprinast]
% conversion [5]: 35.45% | inhibition at 20 µM [6]: 2.99%

CN(C)C/C=C(/c1ccc(Br)cc1)c1cccnc1 [Zimelidine dihydrochloride]
% conversion [5]: 37.91%

O=C1Cc2cc(CCN3CCN(c4nsc5ccccc45)CC3)c(Cl)cc2N1 [Ziprasidone hydrochloride monohydrate]
% conversion [5]: 26.15%

C[C@H](CSC(=O)c1ccccc1)C(=O)N1C[C@@H](Sc2ccccc2)C[C@H]1C(=O)[O-].C[C@H](CSC(=O)c1ccccc1)C(=O)N1C[C@@H](Sc2ccccc2)C[C@H]1C(=O)[O-].[Ca+2] [Zofenopril calcium]
% conversion: 32.50% | % inhibition (20 µM): 11.63%

O=P(O)(O)C(O)(Cn1ccnc1)P(=O)(O)O [Zoledronic acid monohydrate]
Plate 3 (% conversion): 37.14%

NS(=O)(=O)Cc1noc2ccccc12 [Zonisamide sodium]
% conversion [5]: 32.12%

CC(N)Cc1c[nH]c2ccc(O)cc12.O=C(O)/C=C\C(=O)O (stereo not drawn) [alpha-Methyl-5-hydroxytryptamine maleate]
Plate 3 (% conversion): 39.06%

NC(CO)C(=O)NNCc1ccc(O)c(O)c1O (centres unmarked) [benserazide, reference compound]
IC50 [9]: 3490 ± 760 nM | inhibition at 20 µM [10]: 95.2% | Plate 1 (% inhibition) [1]: 95.21% | Plate 1 (% conversion) [2]: 3.90%

O=C(O)/C=C/c1ccc(O)c(O)c1 [caffeic acid, reference compound]
IC50 [9]: 240 ± 80 nM | Plate 1 (% conversion) [2]: 3.16%

CCOc1nc2cccc(C(=O)O)c2n1Cc1ccc(-c2ccccc2-c2nnn[nH]2)cc1 [candesartan, reference compound]
IC50 [μM] [9]: no inhibition

CC(=O)OCC1=C(C(=O)[O-])N2C(=O)[C@@H](NC(=O)CCC[C@@H](N)C(=O)[O-])[C@H]2SC1.[Zn+2] [cephalosporin C zinc salt, reference compound]
Inhibition at 20 µM [%]: 98.1% | Plate 1 (% conversion): 2.94% | IC50 (pH 7.5): ~70 nM and 70 nM

NC/C=C\C(=O)O [cis-4-Aminocrotonic acid]
Plate 1 (% inhibition) [1]: -8.37% | Plate 1 (% conversion) [2]: 38.68%

OCCN1CCN(CC/C=C2/c3ccccc3Sc3ccc(C(F)(F)F)cc32)CC1 [cis-(Z)-Flupenthixol dihydrochloride]
Plate 2 (% conversion) [11]: 67.44% | inhibition at 20 µM (LOPAC compound at 20uM, plate 2, normalised to DMSO and 2,4-PDCA controls, read-out: Plate 2 (% inhibition)): -94%

C#CC(N)CCC(=O)O (centres unmarked) [gamma-Acetylinic GABA]
Plate 1 (% inhibition) [1]: -4.92% | Plate 1 (% conversion) [2]: 37.52%

CC(C(=O)O)c1ccc(CC2CCCC2=O)cc1 (centres unmarked) [loxoprofen]
Plate 3 (% conversion) [8]: 35.95%

NC(N)=NCc1cccc(I)c1.NC(N)=NCc1cccc(I)c1.O=S(=O)(O)O [m-Iodobenzylguanidine hemisulfate]
Plate 3 (% conversion) [8]: 36.94%

Cl.Nc1cc(Cl)c(N=C2NCCN2)c(Cl)c1 [p-Aminoclonidine hydrochloride]
Plate 1 (% inhibition) [1]: -0.11% | Plate 1 (% conversion) [2]: 35.91%

O=C1C=CC(=O)C=C1 [p-Benzoquinone, reference compound]
Inhibition at 20 µM [%]: 99.3% | Plate 1 (% conversion): 2.52% | Plate 1 (% inhibition): 99.30%

N[C@@H](Cc1ccc(F)cc1)C(=O)O [p-Fluoro-L-phenylalanine]
Plate 2 (% conversion) [11]: 36.49% | Plate 2 (% inhibition) [12]: -1.58%

Cl.Clc1cc(I)cc(Cl)c1NC1=NCCN1 [p-Iodoclonidine hydrochloride]
Plate 3 (% conversion) [8]: 40.33%

COc1ccccc1N1CCN(CCN(C(=O)c2ccc(F)cc2)c2ccccn2)CC1.Cl.Cl [p-MPPF dihydrochloride]
Plate 3 (% conversion) [8]: 43.58%

O=c1c(O)c(-c2ccc(O)c(O)c2)oc2cc(O)cc(O)c12 [quercetin, reference compound]
IC50 [9]: 240 ± 10 nM | inhibition at 20 µM [10]: 97.8% | % conversion [5]: 3.10% | inhibition at 20 µM [6]: 97.8%

CCCc1nn(C)c2c(=O)[nH]c(-c3cc(S(=O)(=O)N4CCN(C)CC4)ccc3OCC)nc12 [sildenafil, reference compound]
Plate 5 (% conversion): 6.67% | IC50 [9]: 2450 ± 360 nM | inhibition at 20 µM [10]: 97.8% | Plate 5 (% inhibition) [3]: 87.11%

(+)-Catechin Hydrate
Plate 1 (% inhibition) [1]: 90.19% | Plate 1 (% conversion) [2]: 5.58%

(+)-Cyclazocine
Plate 2 (% conversion): 35.78% | Plate 2 (% inhibition) (20 µM): 0.54%

(±)-Atenolol
Plate 1 (% inhibition) [1]: 7.50%

(±)-Butaclamol hydrochloride
Plate 1 (% inhibition) [1]: -27.23% | Plate 1 (% conversion) [2]: 45.02%

BMS-193885
% conversion [5]: 32.96%

CCT007093
% inhibition [7]: 2.20% | % conversion [5]: 35.72%

CP-316819
Plate 5 (% conversion): 34.19% | Plate 5 (% inhibition): 6.23%

CP-335963
% conversion: 27.86% | Plate 5 (% inhibition): -8.78%

KRM-III
Plate 2 (% conversion) [11]: 30.60% | Plate 2 (% inhibition) [12]: 15.99%

LY-310,762 hydrochloride
Plate 3 (% conversion) [8]: 45.55%
